What was measured:
CKD mice = test: Femur X-ray CT bone thickness and bone volume fraction in CKD mice; type: in vivo, mouse
Method: Femurs were dissected from mice, wrapped in parafilm and imaged directly in a Nikon XT H 225 scanner (macro-CT, Nikon Metrology, Tring, UK). The raw transmission images were reconstructed using commercial image reconstruction software package (CT Pro 3D, Nikon Metrology, Tring, UK), which employs a filtered back-projection algorithm. The scan was performed using 80 kV beam energy, 70 μA beam current, and a power of 5.6 W. A PerkinElmer 1620 flat panel detector was used, with 200 μm pixel size. The resulting effective pixel size was 5 μm. The exposure time per projection was 0.5 s, and a total of 1601 projections were acquired, resulting in a scanning time of approximately 13 minutes per sample. Bone structural parameters, including thickness and volume fraction (the ratio of bone volume (BV) to total volume (TV)), for both cortical and trabecular regions were assessed using a plug-in module, BoneJ, in ImageJ (NIH, USA).

[1] = test system: Primary human coronary artery vascular smooth muscle cells; test: VSMC osteogenic marker gene expression (qRT-PCR); type: cell-based; details: OS + 2.5 μM vs OS, 14 days
Method: Primary human coronary artery vascular smooth muscle cells, (VSMCs, ATCC, PCS-100-021) were cultured using vascular smooth muscle cell media and growth kit (ATCC, PCS-100-042). VSMCs (passage 4-6) were harvested using 0.05% trypsin-EDTA solution (Caisson Labs, TRL04) and seeded with a density of 26,320 cells.cm^-2 and incubated for 72 hours at 37° C., 5% CO2 with controlled humidity prior to treatment. […] OS media were supplemented with 10 mM β-glycerophosphate (Sigma, 13408-09-8), 0.1 mM L-ascorbic acid (Sigma, 113170-55-1), and 10 nM dexamethasone (Sigma, 50-02-2). To assess the role of EGFR inhibition, tyrphostin AG1478 (Millipore Sigma, T4182) was dissolved in vehicle (DMSO:Methanol, 1:1) and added to OS media to a final concentration of 2.5 μM. An equal volume of vehicle was added to the control and OS groups. […] On days 6, 13, 20, and 27 the media were replaced by an extracellular-vesicle-free (EV-free) media (ultracentrifuged for 15 hours at 100,000×g at 4° C. to remove background EVs common in the serum). After 24 hours, conditioned media were collected on days 7, 14, 21, and 28. […] To perform the quantitative real time polymerase chain reaction (qRT-PCR), Power SYBR Green RNA-to-CT 1-Step Kit (Applied Biosystems, 4391178) was used. […] The relative gene expression levels were calculated using comparative CT method, considering control groups as the reference. […]

[2] = test system: Primary human coronary artery vascular smooth muscle cells; test: In vitro calcification of VSMCs, Alizarin Red S staining; type: cell-based; details: OS media, 2.5 μM, 28 days
Method: Primary human coronary artery vascular smooth muscle cells, (VSMCs, ATCC, PCS-100-021) were cultured using vascular smooth muscle cell media and growth kit (ATCC, PCS-100-042). VSMCs (passage 4-6) were harvested using 0.05% trypsin-EDTA solution (Caisson Labs, TRL04) and seeded with a density of 26,320 cells.cm^−2 and incubated for 72 hours at 37° C., 5% CO2 with controlled humidity prior to treatment. VSMCs were treated with either control media, consisting of DMEM (HyClone, SH30022.01), 10% v/v bovine calf serum (iron-supplemented, R&D Systems, S11950), and 1% v/v penicillin-streptomycin (Gibco, 15070-063), or with an osteogenic media (OS) optimized to induce calcification. OS media were supplemented with 10 mM β-glycerophosphate (Sigma, 13408-09-8), 0.1 mM L-ascorbic acid (Sigma, 113170-55-1), and 10 nM dexamethasone (Sigma, 50-02-2).
To assess the role of EGFR inhibition, tyrphostin AG1478 (Millipore Sigma, T4182) was dissolved in vehicle (DMSO:Methanol, 1:1) and added to OS media to a final concentration of 2.5 μM. An equal volume of vehicle was added to the control and OS groups. […]
To quantify the in vitro calcification, ARS stain was extracted using acetic acid (1.67 M, Fisher Chemical, A38S) on a shaker. […] Sample absorbance of 405 nm was measured using a multi-mode reader (BioTek, Synergy HTX).

COc1cc2ncnc(Nc3cccc(Cl)c3)c2cc1OC [AG1478, tyrphostin AG1478]
thickness of cortical bone (CKD mice; CKD mice treated vs CKD, p=0.004): increased
thickness of trabecular bone, metaphysical region (CKD mice; CKD mice treated vs CKD, p=0.02): increased
thickness of trabecular bone, epiphyseal region (CKD mice; CKD mice treated vs CKD, p=0.04): increased
bone volume fraction in trabecular bone, metaphysical region (CKD mice; compared to CKD animals, p=0.002): increased
bone volume fraction in trabecular bone, epiphyseal region (CKD mice; compared to CKD animals, p=0.009): increased
bone volume fraction in cortical bone (CKD mice; compared to CKD animals, p=0.25): did not significantly change
Gene expression of osteogenic marker ALPL in VSMCs ([1]; p=0.1): no significant differences
Gene expression of osteogenic marker RUNX2 in VSMCs ([1]; p=0.42): no significant differences
in vitro calcification of VSMCs (ARS staining) [2]: abrogated
